Source: ChEMBL document CHEMBL5576159, “Discovery and structure-activity relationship study of novel isoxazole-based small molecules targeting Zika virus infections” (RSC Med Chem, 2024)

Tests used:
Zika virus [1] = experiment: Antiviral activity against ZIKV BR infected in cervical cells; conditions: Cervical cell
[2] = Cytotoxicity against African green monkey Vero cells infected with ZIKV MR766 incubated for 48 hrs by immunofluorescence analysis; conditions: chlorocebus sabaeus, Vero cells infected with ZIKV PRVABC59
Zika virus [3] = experiment: Antiviral activity against ZIKV MR766 infected in Vero cells measured after 48 hrs by immunofluorescence analysis
[4] = Selectivity index, ratio of CC50 for African green monkey Vero cells infected with ZIKV MR766 to EC50 for ZIKV MR766 infected in Vero cells
Cytochrome P450 2D6 = Cytochrome P450 2D6 (Homo sapiens, UniProt P10635); experiment: Inhibition of CYP2D6 in human liver microsomes using dextromethorphan as substrate preincubated for 5 mins followed by substrate and NADPH addition and measured after 20 mins by LC-MS/MS analysis
Chain of Cytochrome P450 2D6 (P10635 whole entry): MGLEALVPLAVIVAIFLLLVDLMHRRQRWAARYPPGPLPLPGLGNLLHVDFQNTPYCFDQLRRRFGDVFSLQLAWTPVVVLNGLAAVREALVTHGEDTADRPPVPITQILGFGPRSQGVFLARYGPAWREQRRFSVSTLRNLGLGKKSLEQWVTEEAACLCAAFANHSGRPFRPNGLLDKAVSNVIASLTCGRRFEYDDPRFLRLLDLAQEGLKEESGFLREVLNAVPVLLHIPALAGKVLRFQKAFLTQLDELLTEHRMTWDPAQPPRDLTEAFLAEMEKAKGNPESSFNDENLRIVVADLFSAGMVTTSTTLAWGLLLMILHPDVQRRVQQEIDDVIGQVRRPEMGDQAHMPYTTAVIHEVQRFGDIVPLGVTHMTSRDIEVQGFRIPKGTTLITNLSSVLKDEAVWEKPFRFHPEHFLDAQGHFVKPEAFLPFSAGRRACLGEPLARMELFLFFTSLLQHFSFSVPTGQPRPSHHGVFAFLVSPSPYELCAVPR

hERG = hERG (Homo sapiens, UniProt Q12809); experiment: Inhibition of hERG at 10 uM incubated for 2 hrs relative to control
Chain of hERG (Q12809 whole entry): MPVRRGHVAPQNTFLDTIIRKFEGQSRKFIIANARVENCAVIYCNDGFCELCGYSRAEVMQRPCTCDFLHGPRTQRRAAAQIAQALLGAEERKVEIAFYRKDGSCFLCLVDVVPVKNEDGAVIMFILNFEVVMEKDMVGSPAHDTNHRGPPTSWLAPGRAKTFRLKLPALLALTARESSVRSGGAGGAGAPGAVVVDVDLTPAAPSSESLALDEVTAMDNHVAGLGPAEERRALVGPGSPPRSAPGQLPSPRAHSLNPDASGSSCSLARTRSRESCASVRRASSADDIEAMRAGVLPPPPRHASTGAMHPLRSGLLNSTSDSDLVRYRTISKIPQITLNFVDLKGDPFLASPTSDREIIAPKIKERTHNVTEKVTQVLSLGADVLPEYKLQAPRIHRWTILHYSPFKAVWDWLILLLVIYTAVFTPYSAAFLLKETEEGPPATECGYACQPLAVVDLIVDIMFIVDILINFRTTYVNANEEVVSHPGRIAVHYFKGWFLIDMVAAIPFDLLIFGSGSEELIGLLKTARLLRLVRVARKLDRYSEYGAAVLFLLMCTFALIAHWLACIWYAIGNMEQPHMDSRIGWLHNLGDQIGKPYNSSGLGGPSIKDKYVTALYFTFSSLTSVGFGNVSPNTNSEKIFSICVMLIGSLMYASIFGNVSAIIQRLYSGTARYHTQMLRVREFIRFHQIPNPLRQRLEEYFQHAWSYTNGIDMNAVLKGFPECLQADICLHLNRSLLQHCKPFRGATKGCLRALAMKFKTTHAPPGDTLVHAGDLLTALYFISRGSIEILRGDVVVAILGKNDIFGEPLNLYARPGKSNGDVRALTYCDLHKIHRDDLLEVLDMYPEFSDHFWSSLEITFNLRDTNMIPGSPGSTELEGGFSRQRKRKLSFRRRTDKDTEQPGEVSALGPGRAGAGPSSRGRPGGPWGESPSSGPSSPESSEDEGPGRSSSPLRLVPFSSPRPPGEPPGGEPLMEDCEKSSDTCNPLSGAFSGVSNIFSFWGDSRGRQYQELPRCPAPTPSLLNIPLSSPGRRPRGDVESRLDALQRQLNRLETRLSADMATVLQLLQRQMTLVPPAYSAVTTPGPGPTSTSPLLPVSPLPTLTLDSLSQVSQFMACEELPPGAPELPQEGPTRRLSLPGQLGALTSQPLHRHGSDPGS

[5] = Stability in mouse liver microsomes assessed as compound remaining at 1 uM incubated for 30 mins by LC-MS/MS analysis
[6] = Stability in rat liver microsomes assessed as compound remaining at 1 uM incubated for 30 mins by LC-MS/MS analysis
[7] = Stability in human liver microsomes assessed as compound remaining at 1 uM incubated for 30 mins by LC-MS/MS analysis
[8] = Plasma protein binding in mouse at 5 uM incubated for 4 hrs under shaking condition by LC-MS/MS analysis
[9] = Plasma protein binding in human at 5 uM incubated for 4 hrs under shaking condition by LC-MS/MS analysis
Zika virus [10] = experiment: Antiviral activity against ZIKV infected in Vero E6 cells assessed as inhibition of viral replication; conditions: Vero C1008
[11] = Cytotoxicity against African green monkey Vero E6 cells; type: toxicity, cell-based, Vero C1008; conditions: chlorocebus sabaeus

EC50 (Zika virus [3]) | Structure (SMILES) | CC50 at 48 h [2] | also measured
– | O=S(=O)(NCCCCNc1ccnc2cc(Cl)ccc12)c1ccc(Cl)cc1 | – | EC50 (Zika virus [1]): 3.2 µM
– | FC(F)(F)c1cc(-c2cc(-c3ccc(NCc4cccnc4)cc3)no2)ccn1 | > 100 µM | –
36.8 µM | c1ccc(-c2nc(-c3ccc(NCc4cccnc4)cc3)c[nH]2)cc1 | 94.1 µM | selectivity ratio [4]: 2.6
– | N#Cc1ccc(-c2cc(-c3ccc(NCc4cccnc4)cc3)no2)cc1 | > 100 µM | IC50 (Cytochrome P450 2D6): > 99 µM
– | FC(F)(F)c1ccc(-c2cc(-c3ccc(NCc4cccnc4)cc3)no2)cc1 | > 100 µM | IC50 (Cytochrome P450 2D6): > 99 µM; inhibition at 2 h, 10 µM (hERG): 5.37%; remaining at 0.5 h, 1 µM [5]: 79.6%; remaining at 0.5 h, 1 µM [6]: 51.7%; remaining at 0.5 h, 1 µM [7]: 71.5%; fraction unbound at 4 h, 5 µM [8]: 0.003; fraction unbound at 4 h, 5 µM [9]: 0.0047
– | COc1ccccc1-c1cc(-c2ccc(NCc3cccnc3)cc2)no1 | > 100 µM | IC50 (Cytochrome P450 2D6): 27.1 µM
5.3 µM | c1ccc(-c2noc(-c3ccc(NCc4cccnc4)cc3)n2)cc1 | 61.4 µM | selectivity ratio [4]: 11.6
– | FC(F)(F)Oc1ccc(-c2cc(-c3ccc(NCc4cccnc4)cc3)no2)nc1 | > 100 µM | –
– | CCn1c2ccccc2c2cc(NC(=O)Nc3ccc(N)cc3C)ccc21 | – | EC50 (Zika virus [10]): 1.67 µM; CC50 [11]: > 12.5 µM
> 100 µM | c1ccc(-c2nnc(-c3ccc(NCc4cccnc4)cc3)o2)cc1 | > 100 µM | –
– | Fc1ccc(-c2cc(-c3ccc(NCc4cccnc4)cc3)no2)cc1 | > 100 µM | –
> 100 µM | Cn1cc(-c2ccc(NCc3cccnc3)cc2)nc1-c1ccccc1 | > 100 µM | –
– | c1cncc(CNc2ccc(-c3cc(-c4cncnc4)on3)cc2)c1 | > 100 µM | IC50 (Cytochrome P450 2D6): 3.5 µM
44.5 µM | FC(F)(F)Oc1ccccc1-c1cc(-c2ccc(NCc3cccnc3)cc2)no1 | – | –
3.3 µM | Fc1cccc(-c2cc(-c3ccc(NCc4cccnc4)cc3)no2)c1 | – | –
5.1 µM | c1ccc(-c2cnc(-c3ccc(NCc4cccnc4)cc3)o2)cc1 | 12.9 µM | selectivity ratio [4]: 2.5
